Source: patent US10829481B2, “Benzimidazole derivatives as modulators of ROR-gamma” (Vitae Pharmaceuticals, LLC, priority 2016, dated 2020)

Legend:
[1] = biological target: recombinant RORγ Ligand Binding Domain (LBD) protein (Homo sapiens (Human), UniProt P51449); test: Radio-Ligand RORγ Binding Assay (Assay 1); conditions: competition with 25-hydroxy [26,27-3H]-cholesterol, SPA
Outline: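 Scintillation proximity competition against 25-hydroxy [26,27-^3H]-cholesterol (8.6 nM solution) for 6×His-GST-tagged RORγ LBD (24 nM solution) in HEPES pH 7.4 with CHAPS, β-octylglucopyranoside and DTT; semi-log compound dilutions, ~1 h total at rt with poly-Lys YSi beads. IC50 from four-parameter fit; Ki derived from [RL] and radioligand KD.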

[2] = biological target: full-length RORγt in Jurkat cells (Homo sapiens (Human), UniProt P51449); test: RORγt 5×RORE Assay in Jurkat Cells (Assay 2); assay type: cell-based; conditions: 5×RORE Nanoluc luciferase reporter
full-length RORγt in Jurkat cells, sequence (P51449 other isoform, or with tags, fused parts or gaps): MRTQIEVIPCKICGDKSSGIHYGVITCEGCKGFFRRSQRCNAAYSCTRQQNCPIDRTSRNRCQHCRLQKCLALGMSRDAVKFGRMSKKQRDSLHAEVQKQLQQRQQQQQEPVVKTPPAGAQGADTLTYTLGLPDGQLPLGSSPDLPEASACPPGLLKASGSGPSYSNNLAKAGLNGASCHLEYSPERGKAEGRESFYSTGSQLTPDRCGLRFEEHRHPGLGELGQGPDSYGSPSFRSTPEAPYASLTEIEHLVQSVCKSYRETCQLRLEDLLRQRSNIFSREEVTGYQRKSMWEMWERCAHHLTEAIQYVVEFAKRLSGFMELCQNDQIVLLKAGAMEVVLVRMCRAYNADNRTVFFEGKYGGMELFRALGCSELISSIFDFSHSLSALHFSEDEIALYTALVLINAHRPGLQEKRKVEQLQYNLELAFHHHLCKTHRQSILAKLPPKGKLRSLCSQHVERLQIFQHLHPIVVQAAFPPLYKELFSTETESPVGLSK

recombinant RORγ Ligand Binding Domain (LBD) protein, sequence (P51449 269-508): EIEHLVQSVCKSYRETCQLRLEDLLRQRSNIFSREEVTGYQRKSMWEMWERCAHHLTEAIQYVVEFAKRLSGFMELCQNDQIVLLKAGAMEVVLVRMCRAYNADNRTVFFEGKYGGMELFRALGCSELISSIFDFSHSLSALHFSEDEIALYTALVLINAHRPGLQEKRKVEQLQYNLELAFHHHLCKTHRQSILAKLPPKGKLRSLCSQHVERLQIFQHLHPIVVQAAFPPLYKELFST

Structure (SMILES) | Ki [1] [nM] | IC50 [2] [nM]
CCS(=O)(=O)c1ccc([C@H](CO)NC(=O)c2ccc3c(c2)nc(C(F)(F)F)n3Cc2cccc3c2OC(F)(F)O3)nc1 [I-130.1, (R)-1-((2,2-difluorobenzo[d][1,3]dioxol-4-yl)methyl)-N-(1-(5-(ethylsulfonyl)pyridin-2-yl)-2-hydroxyethyl)-2-(trifluoromethyl)-1H-benzo[d]imidazole-5-carboxamide] | < 100 | < 100
CCS(=O)(=O)c1ccc([C@@H](CO)NC(=O)c2ccc3c(c2)nc(C(F)(F)F)n3Cc2cccc3c2OC(F)(F)O3)nc1 [I-130.2, (S)-1-((2,2-difluorobenzo[d][1,3]dioxol-4-yl)methyl)-N-(1-(5-(ethylsulfonyl)pyridin-2-yl)-2-hydroxyethyl)-2-(trifluoromethyl)-1H-benzo[d]imidazole-5-carboxamide] | < 100 | < 100
CCS(=O)(=O)c1ccc([C@H](CO)NC(=O)c2ccc3c(c2)nc(C(F)F)n3Cc2cccc3c2OC(F)(F)O3)nc1 [I-131.1, (R)-1-((2,2-difluorobenzo[d][1,3]dioxol-4-yl)methyl)-2-(difluoromethyl)-N-(1-(5-(ethylsulfonyl)pyridin-2-yl)-2-hydroxyethyl)-1H-benzo[d]imidazole-5-carboxamide] | < 100 | < 100
CCS(=O)(=O)c1ccc([C@@H](CO)NC(=O)c2ccc3c(c2)nc(C(F)F)n3Cc2cccc3c2OC(F)(F)O3)nc1 [I-131.2, (S)-1-((2,2-difluorobenzo[d][1,3]dioxol-4-yl)methyl)-2-(difluoromethyl)-N-(1-(5-(ethylsulfonyl)pyridin-2-yl)-2-hydroxyethyl)-1H-benzo[d]imidazole-5-carboxamide] | < 100 | 100 to 1000
CCS(=O)(=O)c1ccc([C@H](CO)NC(=O)c2ccc3c(c2)nc(C2CCC2)n3Cc2cccc3c2OC(F)(F)O3)nc1 [I-132.1, (R)-2-cyclobutyl-1-((2,2-difluorobenzo[d][1,3]dioxol-4-yl)methyl)-N-(1-(5-(ethylsulfonyl)pyridin-2-yl)-2-hydroxyethyl)-1H-benzo[d]imidazole-5-carboxamide] | < 100 | < 100
CCS(=O)(=O)c1ccc([C@@H](CO)NC(=O)c2ccc3c(c2)nc(C2CCC2)n3Cc2cccc3c2OC(F)(F)O3)nc1 [I-132.2, (S)-2-cyclobutyl-1-((2,2-difluorobenzo[d][1,3]dioxol-4-yl)methyl)-N-(1-(5-(ethylsulfonyl)pyridin-2-yl)-2-hydroxyethyl)-1H-benzo[d]imidazole-5-carboxamide] | < 100 | < 100
CCS(=O)(=O)c1ccc([C@H](CO)NC(=O)c2ccc3c(c2)nc(C2CC2)n3Cc2cccc3c2OC(F)(F)O3)nc1 [I-133.1, (R)-2-cyclopropyl-1-((2,2-difluorobenzo[d][1,3]dioxol-4-yl)methyl)-N-(1-(5-(ethylsulfonyl)pyridin-2-yl)-2-hydroxyethyl)-1H-benzo[d]imidazole-5-carboxamide] | < 100 | < 100
CCS(=O)(=O)c1ccc([C@H](CO)NC(=O)c2ccc3c(c2)nc(C2(F)CC2)n3Cc2cccc3c2OC(F)(F)O3)nc1 [I-134.1, (R)-1-((2,2-difluorobenzo[d][1,3]dioxol-4-yl)methyl)-N-(1-(5-(ethylsulfonyl)pyridin-2-yl)-2-hydroxyethyl)-2-(1-fluorocyclopropyl)-1H-benzo[d]imidazole-5-carboxamide] | < 100 | < 100
CCS(=O)(=O)c1ccc([C@@H](CO)NC(=O)c2ccc3c(c2)nc(C2(F)CC2)n3Cc2cccc3c2OC(F)(F)O3)nc1 [I-134.2, (S)-1-((2,2-difluorobenzo[d][1,3]dioxol-4-yl)methyl)-N-(1-(5-(ethylsulfonyl)pyridin-2-yl)-2-hydroxyethyl)-2-(1-fluorocyclopropyl)-1H-benzo[d]imidazole-5-carboxamide] | < 100 | < 100

More lines, now with the values ahead:

Ki [1] [nM] | IC50 [2] [nM] | Structure (SMILES)
< 100 | < 100 | COC(=O)CS(=O)(=O)N1CCC(CNC(=O)c2ccc3c(c2)nc(C(F)(F)F)n3Cc2cccc3[nH]ncc23)CC1 [I-127, methyl 2-((4-((1-((1H-indazol-4-yl)methyl)-2-(trifluoromethyl)-1H-benzo[d]imidazole-5-carboxamido)methyl)piperidin-1-yl)sulfonyl)acetate]
< 100 | > 1000 | CCS(=O)(=O)c1ccc(CNC(=O)c2ccc3c(c2)nc(C(F)(F)F)n3Cc2cc(OC)cc(OC)c2)nc1 [I-128, 1-(3,5-dimethoxybenzyl)-N-((5-(ethylsulfonyl)pyridin-2-yl)methyl)-2-(trifluoromethyl)-1H-benzo[d]imidazole-5-carboxamide]
< 100 | < 100 | CCS(=O)(=O)c1ccc(CNC(=O)c2ccc3c(c2)nc(C(F)(F)F)n3Cc2cccc(OC)c2F)cc1 [I-136, N-(4-(ethylsulfonyl)benzyl)-1-(2-fluoro-3-methoxybenzyl)-2-(trifluoromethyl)-1H-benzo[d]imidazole-5-carboxamide]
< 100 | < 100 | CCS(=O)(=O)c1ccc(CNC(=O)c2ccc3c(c2)nc(C(F)(F)F)n3Cc2cccc3cnn(C)c23)cc1 [I-137, N-(4-(ethylsulfonyl)benzyl)-1-((1-methyl-1H-indazol-7-yl)methyl)-2-(trifluoromethyl)-1H-benzo[d]imidazole-5-carboxamide]
< 100 | 100 to 1000 | CCS(=O)(=O)c1ccc(CNC(=O)c2ccc3c(c2)nc(C(F)(F)F)n3Cc2nc(C)cc(C(F)(F)F)n2)cc1 [I-138, N-(4-(ethylsulfonyl)benzyl)-1-((4-methyl-6-(trifluoromethyl)pyrimidin-2-yl)methyl)-2-(trifluoromethyl)-1H-benzo[d]imidazole-5-carboxamide]
< 100 | < 100 | CCS(=O)(=O)c1ccc(CNC(=O)c2ccc3c(c2)nc(C(F)(F)F)n3Cc2cccc3cn(C)nc23)cc1 [I-139, N-(4-(ethylsulfonyl)benzyl)-1-((2-methyl-2H-indazol-7-yl)methyl)-2-(trifluoromethyl)-1H-benzo[d]imidazole-5-carboxamide]
> 1000 | 100 to 1000 | CCS(=O)(=O)c1ccc(CNC(=O)c2ccc3c(c2)nc(C(F)(F)F)n3Cc2cccc3c2cnn3C)cc1 [I-141, N-(4-(ethylsulfonyl)benzyl)-1-((1-methyl-1H-indazol-4-yl)methyl)-2-(trifluoromethyl)-1H-benzo[d]imidazole-5-carboxamide]
< 100 | 100 to 1000 | CCS(=O)(=O)c1ccc(CNC(=O)c2ccc3c(c2)nc(C(F)(F)F)n3Cc2cccc3nn(C)cc23)cc1 [I-143, N-(4-(ethylsulfonyl)benzyl)-1-((2-methyl-2H-indazol-4-yl)methyl)-2-(trifluoromethyl)-1H-benzo[d]imidazole-5-carboxamide]
< 100 | 100 to 1000 | CCS(=O)(=O)c1ccc(CNC(=O)c2ccc3c(c2)nc(C(F)(F)F)n3Cc2cccc3ocnc23)cc1 [I-147, 1-(benzo[d]oxazol-4-ylmethyl)-N-(4-(ethylsulfonyl)benzyl)-2-(trifluoromethyl)-1H-benzo[d]imidazole-5-carboxamide]
< 100 | > 1000 | CCS(=O)(=O)c1ccc(CNC(=O)c2ccc3c(c2)nc(C2CC2)n3Cc2cccc3c2OCCO3)cc1 [I-148, 2-cyclopropyl-1-((2,3-dihydrobenzo[b][1,4]dioxin-5-yl)methyl)-N-(4-(ethylsulfonyl)benzyl)-1H-benzo[d]imidazole-5-carboxamide]
< 100 | < 100 | CCS(=O)(=O)c1ccc(CNC(=O)c2ccc3c(c2)nc(C2CC2)n3[C@H](C)c2cccc3c2OC(F)(F)O3)cc1 [I-149, (R)-2-cyclopropyl-1-(1-(2,2-difluorobenzo[d][1,3]dioxol-4-yl)ethyl)-N-(4-(ethylsulfonyl)benzyl)-1H-benzo[d]imidazole-5-carboxamide]
100 to 1000 | > 1000 | CCS(=O)(=O)c1ccc(CNC(=O)c2ccc3c(c2)nc(C)n3Cc2ccccc2)cc1 [I-150, 1-benzyl-N-(4-(ethylsulfonyl)benzyl)-2-methyl-1H-benzo[d]imidazole-5-carboxamide]
< 100 | < 100 | CCS(=O)(=O)c1ccc(CNC(=O)c2ccc3c(c2)nc(C(F)(F)F)n3Cc2cccc3nonc23)cc1 [I-151, 1-(benzo[c][1,2,5]oxadiazol-4-ylmethyl)-N-(4-(ethylsulfonyl)benzyl)-2-(trifluoromethyl)-1H-benzo[d]imidazole-5-carboxamide]
< 100 | < 100 | CCS(=O)(=O)c1ccc(CNC(=O)c2ccc3c(c2)nc(C(F)(F)F)n3Cc2cccc3ncoc23)cc1 [I-152, 1-(benzo[d]oxazol-7-ylmethyl)-N-(4-(ethylsulfonyl)benzyl)-2-(trifluoromethyl)-1H-benzo[d]imidazole-5-carboxamide]
< 100 | < 100 | CCS(=O)(=O)c1ccc(CNC(=O)c2ccc3c(c2)nc(C2CC2)n3Cc2cc(O)cc(OC(F)(F)F)c2)cc1 [I-153, 2-cyclopropyl-N-(4-(ethylsulfonyl)benzyl)-1-(3-hydroxy-5-(trifluoromethoxy)benzyl)-1H-benzo[d]imidazole-5-carboxamide]
< 100 | > 1000 | CCS(=O)(=O)c1ccc(CNC(=O)c2ccc3c(c2)nc(C2CC2)n3Cc2cccc(O)c2O)cc1 [I-154, 2-cyclopropyl-1-(2,3-dihydroxybenzyl)-N-(4-(ethylsulfonyl)benzyl)-1H-benzo[d]imidazole-5-carboxamide]
< 100 | > 1000 | CCS(=O)(=O)c1ccc(CNC(=O)c2ccc3c(c2)nc(C(F)(F)F)n3CC2CCN(c3ncc(F)cn3)CC2)cc1 [I-158, N-(4-(ethylsulfonyl)benzyl)-1-((1-(5-fluoropyrimidin-2-yl)piperidin-4-yl)methyl)-2-(trifluoromethyl)-1H-benzo[d]imidazole-5-carboxamide]
